Measured values reported in patent EP0408749A1, “DERIVATIVES OF 3,18-DIHYDROXY-9,13-EPOXYLABDANE, METHOD OF OBTAINING THEM AND A HEMOSTATIC PHARMACEUTICAL PREPARATION BASED THEREON” (TASHKENTSKY GOSUDARSTVENNY UNIVERSITET IMENI V.I. LENINA, priority 1988, dated 1990).
Where a name gives a salt, the structure may show the parent alone.

Assays:
[1] = tested on: hemostatic effect; conditions: prior art statement; cited from earlier work
[2] = tested on: blood coagulation system; assay: Comparative clinical study of hemostatic effect against dicynone; type: in vivo; conditions: twenty post-operation patients, 20 minutes after introduction, p < 0.05
Experimental: The pharmaceutical preparation according to the present invention and dicynone were subjected to a comparative study for their hemostatic effect. Twenty post-operation patients (cardiorevivification department). The preparations were administered in the amount of […]. For the determination of the hemostatic effect determined by the functional state of the blood coagulation system the following characteristics were studied: thromboelastogram, the time of recalcification of citrate plasma and the plasma tolerance towards heparin. 20 minutes after the introduction of dicynone the parameter of the time of reaction of the rate of formation of thromboplastin was decreased by 32%, after administration of the preparation according to the present invention - by 75%, the time of coagulation was reduced, respectively, by 2'1 and 43%, t,ie time of recalcification of plasma decreased by 43 and 61% respectively, tolerance of plasma to heparin increased by 36 and 52%, respectively (at an error of p < 0.05).

[3] = tested on: blood coagulation; assay: Thromboelastogram in dogs after administration of the compound; type: in vivo; conditions: dog, 25 mg/kg; for Time of reaction of blood coagulation, R / Time of the clot formation K: arithmetic mean M; for Time of reaction of blood coagulation, R: 10 animals, initial 23.0; for Time of the clot formation K: initial 20.0
Experimental: (§1) The pharmacological studies of the hemostatic activity of the compounds according to the present invention was conducted in vivo and in vitro with the use of biochemical tests and by means of a thromboelasto- graph.
(§2) The blood for examination was taken from an opened dog's thigh vein prior to administration of the compound and 10, 30, 60, 90 and 120 min thereafter. For the cuvette of the thromboelasto- graph the blood was taken in the amount of 0.36 ml, while for biochemical tests -up to 10 ml (as the con- servant use was made of a 1.34% solution of sodium oxalate which was added in the ratio of 1:9).
The next series of experiments - administration of the compound according to the present invention in the dose of 25 mg/kg of the animals' bodymass.

[4] = tested on: blood coagulation; assay: Thromboelastogram in vitro; type: biochemical; conditions: for Time of the reaction of blood coagulation, R / Coagulation index, C: in vitro, experiment (O)
Experimental: as §1
The effect of the compound according to the present invention , viz. 3,1,18-trihydroxy-9,13-epofil- abdan-15-ic acid sodium salt trihydrate on hemostasis was studied in vitro with the use of a thromboelastogram.

[5] = tested on: blood coagulation system; assay: Biochemical tests of the blood coagulation system in dogs, intravenous; type: in vivo; conditions: dog, 25 mg/kg intravenously; for Time of blood coagulation / Tolerance of the plasma to heparin / Trombin time / Time of plasma recalcification: mean M; for Time of blood coagulation: 10 animals, initial 5.1; for Tolerance of the plasma to heparin: initial 6.8; for Trombin time: initial 17.0; for Time of plasma recalcification: initial 117.0
Experimental: as §1, §2
In another series of experiments the effect of the compound according to the present invention was studied in biochemical tests.

[6] = tested on: local blood hemorrhage; assay: Local blood hemorrhage, local application; type: in vivo; conditions: local effect, concentration of 0.5%
Description: The study of the effect provided by the compound according to the present invention on the local blood hemorrhage has shown that the local effect of the compound in tne concentration of 0.5% lowers the flood loss by 83% and the hemorrhage duration is reduced by 60%.

[7] = tested on: thrombocytes; assay: Effect on thrombocytes
Description: Furthermore, the compound according to the present invention increases the number of thrombocytes and activates adhesion and aggregation of thrombocytes.

[8] = tested on: heparin; assay: Effect on heparin
[9] = tested on: white non-descipt mice; assay: Acute toxicity, intraperitoneal; type: in vivo
Experimental: The compound according to the present invention, i.e. 3,16,18-trihydroxy-3,13-epoxylabdan-15-ic acid sodium salt trihydrate was tested for an acute toxicity.

[10] = tested on: rats, dogs; conditions: in vivo
[11] = tested on: blood coagulation; assay: Thromboelastogram in dogs after administration of the compound; type: in vivo; conditions: 10 mg/kg
[12] = tested on: hemostatic effect; conditions: after administration to patients; cited from earlier work
[13] = tested on: blood coagulation; assay: Blood coagulation in dogs after hypodermal administration of a 20% oily solution; type: in vivo; conditions: 50 mg/kg hypodermally; for Time of blood coagulation / Fibrinolytic activity of blood / Time of plasma recalcification / Tolerance of plasma to heparin / Fibrinogen: mean M; for Time of blood coagulation: prior 318.0; for Fibrinolytic activity of blood: prior 41.0; for Time of plasma recalcification: prior 106.0; for Tolerance of plasma to heparin: prior 214.0; for Fibrinogen: prior 435.0
Experimental: as §1
[…] For the cuvette of the thromboelasto- graph the blood was taken in the amount of 0.36 ml, while for biochemical tests -up to 10 ml (as the con- servant use was made of a 1.34% solution of sodium oxalate which was added in the ratio of 1:9).
The compound according to the invention , viz. ? 3,18-dihydroxy-9,13-epoxylabdan-15-16-olide was administered to dogs (a group of 5 animals) in the dose of 50 mg/kg of the animal's bodymass hypodermally as a 20% oily solution.

[14] = tested on: mice; assay: LD50, subcutaneous 20% oily solution; type: in vivo; conditions: subcutaneously (hypodermal)
Experimental: The LD50 was determined on mice (a group of 30 animals with. a bodymass of 20-21 g). The mice were administered with 3,18-dihydroxy-9,13-epoxylabdan-15,16-olide subcutaneously (a 20% oily solution). In the case of this manner of administration (i.e. hypodermal one) the LD50 was equal to more than 2,000 mg/kg of the animal's bodymass.

[15] = 30 minutes after administration
[16] = 60 minutes after administration
[17] = 90 minutes after administration
[18] = 120 minutes after administration

Compound: 3, 15, 16, 18-tetrahydroxy-9,13-epoxylabdane
- hemostatic effect [1]: weak

Compound: O=S(=O)(O)c1cc(O)ccc1O [dicynone, 2,5-dihydroxybenzenesulphonate-j-diethylammonium salt]
- time of recalcification of plasma decreased by [2]: 43%
- tolerance of plasma to heparin increased by [2]: 36%
- time of reaction of the rate of formation of thromboplastin decreased by ([2]; amount of 75 g as printed): 32%

Compound: 3,16,18-trihydroxy-9,13-epoxylabdan-15-ic acid sodium salt trihydrate
- coagulation time K is reduced by [3]: 40-55%
- factor C (coagulation index) increased by [3]: 71-133%
- Time of reaction of blood coagulation, R ([3]; column 2 (30 min by the note to Table 3)): 10.0 mm
- Time of reaction of blood coagulation, R ([3]; column 3 (60 min by the note to Table 3)): 12.0 mm
- Time of reaction of blood coagulation, R ([3]; column 4 (90 min by the note to Table 3)): 9.0 mm
- Time of reaction of blood coagulation, R ([3]; column 5 (120 min by the note to Table 3)): 11.0 mm
- Time of the clot formation K ([3]; fifth value column (120 min by the note to Table 3)): 9.0 mm
- Time of the clot formation K ([3]; fourth value column (90 min by the note to Table 3)): 10.0 mm
- Time of the clot formation K ([3]; second value column (30 min by the note to Table 3)): 12.0 mm
- Time of the clot formation K ([3]; third value column (60 min by the note to Table 3)): 11.0 mm
- Time of the reaction of blood coagulation, R ([4]; 0.01 mg, control 26.0): 7.0 mm
- Time of the reaction of blood coagulation, R ([4]; 0.1 mg, control 11.0): 8.0 mm
- Coagulation index, C ([4]; 0.1 mg, control 19.6): 20.8 mm
- Coagulation index, C ([4]; 1 mg, control 23.0): 8.0 mm
- Time of the reaction of blood coagulation, R ([4]; 5 mg, control 18.0): 32.0 mm
- Coagulation index, C ([4]; 5 mg, control 19.0): 3.4 mm
- parameter R (the time of reaction of blood coagulation) ([4]; in vitro, 0.01, 0.1, 0.2 and 1.0 mg per 0.26 ml of blood): substantially reduces
- blood coagulation time is shortened by [5]: 35-40%
- thrombin time is reduced by [5]: 30-35%
- time of plasma recalcification shortened by [5]: 33-39%
- tolerance of plasma to heparin is increased by [5]: 30-40%
- Time of blood coagulation [5, 15]: 3.9 min
- Time of blood coagulation [5, 16]: 3.7 min
- Time of blood coagulation [5, 17]: 3.0 min
- Time of blood coagulation [5, 18]: 3.4 min
- Tolerance of the plasma to heparin [5, 15]: 4,8 min
- Trombin time [5, 15]: 12.0 s
- Time of plasma recalcification [5, 15]: 78.0 s
- Tolerance of the plasma to heparin [5, 16]: 4.6 min
- Trombin time [5, 16]: 12.0 s
- Time of plasma recalcification [5, 16]: 79.0 s
- Tolerance of the plasma to heparin [5, 17]: 4.3 min
- Trombin time [5, 17]: 11.0 s
- Time of plasma recalcification [5, 17]: 74.0 s
- Tolerance of the plasma to heparin [5, 18]: 4.1 min
- Trombin time [5, 18]: 11.0 s
- Time of plasma recalcification [5, 18]: 71.0 s
- hemorrhage duration is reduced by [6]: 60%
- lowers the flood loss by [6]: 83%
- adhesion and aggregation of thrombocytes [7]: activates
- number of thrombocytes [7]: increases
- effect on heparin [8]: did not prevent the effect of heparin but weakened it
- LD50 ([9]; intraperitoneal administration): over 2,000 mg/kg of the animal's bodymass
- death of the animals ([9]; intraperitoneal, 1,000 and 2,000 mg/kg): no death
- local irritation effect [10]: neither provided any local irritation effect
- process of blood coagulation [11]: promoted

Compound: CC1(S(=O)(=O)[O-])CC(=O)c2ccccc2C1=O.[Na+] (stereo not shown) [sodium 2,3-dihydro-2-methyl-1,4-naphthoquinone-2-sulphonate]
- hemostatic effect is noted within [12]: 12 to 18 h

Compound: 3,18-dihydroxy-9,13-epoxylabdan-15,16-olide
- blood coagulation time decreases by ([13]; 20% oily solution): 51%
- time of recalcification decreases by ([13]; 20% oily solution): 32%
- tolerance of the plasma to heparin was increased by ([13]; 20% oily solution): 37%
- Time of blood coagulation ([13]; 20% oily solution, 60 min after administration): 269.0 s
- Time of blood coagulation ([13]; 20% oily solution, 120 min after administration): 218.0 s
- Time of blood coagulation ([13]; 20% oily solution, 180 min after administration): 159.0 s
- Fibrinolytic activity of blood ([13]; 60 min after administration): 53.0%
- Time of plasma recalcification ([13]; 60 min after administration): 102.0 s
- Tolerance of plasma to heparin ([13]; 60 min after administration): 192.0 s
- Fibrinogen ([13]; 60 min after administration): 387.0 mg%
- Fibrinolytic activity of blood ([13]; 120 min after administration): 54.0%
- Time of plasma recalcification ([13]; 120 min after administration): 84.0 s
- Tolerance of plasma to heparin ([13]; 120 min after administration): 138.0 s
- Fibrinogen ([13]; 120 min after administration): 361.0 mg%
- Fibrinolytic activity of blood ([13]; 180 min after administration): 43.0%
- Time of plasma recalcification ([13]; 180 min after administration): 72.0 s
- Tolerance of plasma to heparin ([13]; 180 min after administration): 135.0 s
- Fibrinogen ([13]; 180 min after administration): 293.0 mg%
- LD50 [14]: more than 2,000 mg/kg of the animal's bodymass
